Columns and labels:
[1] = system: transformed human keratinocyte cell line (FEP 1811); test: Clonogenic survival cell culture assay for radioprotective activity (cells irradiated to 12 Gy); assay type: cell-based; conditions: FEP 1811 cells, 12 Gy 137Cs gamma at 0.6 Gy per minute, irradiation started 30 minutes after drug addition, total drug exposure 60 minutes
Description: (§1) The assay involves the transformed human keratinocyte cell line (FEP 1811) (as described by Smith et al (6)) and evaluation of cytotoxicity and radioprotective activity using the clonogenic survival endpoint. The details are described in detail in Martin et al (4) (the disclosure of which is included herein in its entirety by way of reference), but briefly, mid-log phase monolayer cultures are incubated with various concentrations of the test drugs for one hour, after which the monolayers are washed and dispersed into single cell suspensions using pronase, and finally appropriate numbers of cells are dispensed into Petri dishes. Colonies are counted after eight days incubation. For radioprotection studies, the monolayer cultures are irradiated in a ^137Cs-Gamma-cell radiation source to a dose of 12 Gy. The irradiation (with a dose rate of 0.6 Gy per minute) is started 30 minutes after addition of the test drug. After completion of irradiation, incubation of cultures is continued until the total time of exposure to the drug reaches 60 minutes. Cultures are then washed and plated for clonogenic survival as described for the cytotoxicity experiments. The experiments include untreated cultures as controls, and the plating efficiency of these controls is used to adjust that of the test cultures, in order to calculate the overall clonogenic survival.
However, for some of the compounds, the survival decreases at higher drug concentrations, due to cytotoxicity. Non-linear regression analysis of the data, for example that in FIG. 2, generates a parameter denoted the protection factor (PF), which is the ratio of the maximum survival to the radiation-only (zero drug) survival. PF is therefore a measure of radioprotective efficacy. The C50 and PF values, and for a number of the compounds are collected in Table 1, with standard deviations (SD) for those compounds that have been studied in replicate experiments.

[2] = system: transformed human keratinocyte cell line (FEP 1811); test: Clonogenic survival cell culture assay for cytotoxicity (un-irradiated cells); assay type: cell-based; conditions: un-irradiated FEP 1811 cells, one hour drug incubation, colonies counted after eight days; concentrations in FIG. 1 plotted in μM; read-out: cytotoxicity C50 (drug concentration corresponding to 50% survival)
Description: as §1
In general each experiment involves investigation of 4 or 5 different test concentrations of the drug under study, with and without irradiation. The data analysis for the experiments with un-irradiated cells generates curves showing the relationship between cell survival and drug concentration (FIG. 1), from which the drug concentration corresponding to 50% survival (C50) is determined.

For `CN1CCN(c2ccc3[nH]c(-c4ccc5[nH]c(-c6cc(N(C)C)ccc6F)nc5c4)nc3c2)CC1` [Example 9, 5-dimethylamino-2-fluoro-1-(5′-(5″-(4′″-methylpiperazin-1′″-yl)benzimidazol-2″-yl)benzimidazol-2′-yl)benzene], the “radioprotection PF (protection factor: ratio of the maximum survival to the radiation-only (zero drug) survival)” value [1] was 16.7 and the IC50 [2] was 21.9 µM.
With `CNc1cc(F)c(-c2nc3cc(-c4nc5cc(N6CCN(C)CC6)ccc5[nH]4)ccc3[nH]2)cc1F` [Example 10, 2,5-difluoro-4-methylamino-1-(5′-(5″-(4′″-methylpiperazin-1′″-yl)benzimidazol-2″-yl)benzimidazol-2′-yl)benzene] the “radioprotection PF (protection factor: ratio of the maximum survival to the radiation-only (zero drug) survival)” value [1] was 9.62 and the IC50 [2] was 51.4 µM.
For `CN1CCN(c2ccc3[nH]c(-c4ccc5[nH]c(-c6ccc(N(C)C)c(F)c6)nc5c4)nc3c2)CC1` [Example 7, 4-dimethylamino-3-fluoro-1-(5′-(5″-(4′″-methylpiperazin-1′″-yl)benzimidazol-2″-yl)benzimidazol-2′-yl)benzene], the “radioprotection PF (protection factor: ratio of the maximum survival to the radiation-only (zero drug) survival)” value [1] was 3.2 and the IC50 [2] was 26 µM.
For `Cc1cc(N(C)C)ccc1-c1nc2ccc(-c3nc4ccc(N5CCN(C)CC5)cc4[nH]3)cc2[nH]1` [methylproamine, reference compound], the “radioprotection PF (protection factor: ratio of the maximum survival to the radiation-only (zero drug) survival)” value [1] was 10 and the IC50 [2] was 19.3 µM.
`CN1CCN(c2ccc3[nH]c(-c4ccc5[nH]c(-c6ccc(F)cc6)nc5c4)nc3c2)CC1` [Example 6, 4-fluoro-1-{5′-[5″-(4′″-methylpiperazin-1′″-yl)benzimidazol-2″-yl]benzimidazol-2′-yl}benzene] was tested, and the “radioprotection PF (protection factor: ratio of the maximum survival to the radiation-only (zero drug) survival)” value [1] was 4.5 and the IC50 [2] was 34 µM.
`CN1CCN(c2ccc3[nH]c(-c4ccc5[nH]c(-c6ccc(N(C)C)cc6Cl)nc5c4)nc3c2)CC1` [Example 4, 2-chloro-4-dimethylamino-1-(5′-(5″-(4′″-methylpiperazin-1′″-yl)benzimidazol-2″-yl)benzimidazol-2′-yl)benzene] was tested, and the “radioprotection PF (protection factor: ratio of the maximum survival to the radiation-only (zero drug) survival)” value [1] was 5.5 and the IC50 [2] was 18 µM.
`CNc1ccc(F)c(-c2nc3cc(-c4nc5cc(N6CCN(C)CC6)ccc5[nH]4)ccc3[nH]2)c1` [Example 8, 2-fluoro-5-methylamino-1-(5′-(5″-(4′″-methylpiperazin-1′″-yl)benzimidazol-2″-yl)benzimidazol-2′-yl)benzene] was tested, and the “radioprotection PF (protection factor: ratio of the maximum survival to the radiation-only (zero drug) survival)” value [1] was 15.5 and the IC50 [2] was 151 µM.
In the case of `CN1CCN(c2ccc3[nH]c(-c4ccc5[nH]c(-c6c(F)cc(N(C)C)cc6F)nc5c4)nc3c2)CC1` [Example 2, 2,6-difluoro-4-dimethylamino-1-(5′-(5″-(4′″-methylpiperazin-1′″-yl)benzimidazol-2″-yl)benzimidazol-2′-yl)benzene], the “radioprotection PF (protection factor: ratio of the maximum survival to the radiation-only (zero drug) survival)” value [1] is reported as 6.4 and the IC50 [2] is reported as 25 µM.
In the case of `COc1ccc(-c2nc3cc(-c4nc5cc(N6CCN(C)CC6)ccc5[nH]4)ccc3[nH]2)cc1F` [Example 5, 3-fluoro-4-methoxy-1-(5′-(5″-(4′″-methylpiperazin-1′″-yl)benzimidazol-2″-yl)benzimidazol-2′-yl)benzene], the “radioprotection PF (protection factor: ratio of the maximum survival to the radiation-only (zero drug) survival)” value [1] is reported as 2.1 and the IC50 [2] is reported as 91 µM.
In the case of `CNc1ccc(-c2nc3cc(-c4nc5cc(N6CCN(C)CC6)ccc5[nH]4)ccc3[nH]2)c(F)c1` [Example 3, 2-fluoro-4-methylamino-1-(5′-(5″-(4′″-methylpiperazin-1′″-yl)benzimidazol-2″-yl)benzimidazol-2′-yl)benzene], the “radioprotection PF (protection factor: ratio of the maximum survival to the radiation-only (zero drug) survival)” value [1] is reported as 7 and the IC50 [2] is reported as 218 µM.
For `CN1CCN(c2ccc3[nH]c(-c4ccc5[nH]c(-c6ccc(N(C)C)cc6F)nc5c4)nc3c2)CC1` [Example 1, 4-dimethylamino-2-fluoro-1-(5′-(5″-(4′″-methylpiperazin-1′″-yl)benzimidazol-2″-yl)benzimidazol-2′-yl)benzene], the “radioprotection PF (protection factor: ratio of the maximum survival to the radiation-only (zero drug) survival)” value [1] was 9.3 and the IC50 [2] was 28 µM.
